23 compounds from ChEMBL document CHEMBL4043269, “Synthesis and structure activity relationships of carbamimidoylcarbamate derivatives as novel vascular adhesion protein-1 inhibitors” (Bioorg Med Chem, 2017) can be followed below.

Series [1] can be described thus: Aqueous solubility of compound in Japanese pharmacopoeia second fluid at pH 6.8 at 130 uM after 20 hrs by HPLC analysis. Format: physicochemical.
Series [2] has as its target T1, Amine oxidase [copper-containing] 3 (Homo sapiens, UniProt Q16853).
T1 sequence (Q16853 whole entry): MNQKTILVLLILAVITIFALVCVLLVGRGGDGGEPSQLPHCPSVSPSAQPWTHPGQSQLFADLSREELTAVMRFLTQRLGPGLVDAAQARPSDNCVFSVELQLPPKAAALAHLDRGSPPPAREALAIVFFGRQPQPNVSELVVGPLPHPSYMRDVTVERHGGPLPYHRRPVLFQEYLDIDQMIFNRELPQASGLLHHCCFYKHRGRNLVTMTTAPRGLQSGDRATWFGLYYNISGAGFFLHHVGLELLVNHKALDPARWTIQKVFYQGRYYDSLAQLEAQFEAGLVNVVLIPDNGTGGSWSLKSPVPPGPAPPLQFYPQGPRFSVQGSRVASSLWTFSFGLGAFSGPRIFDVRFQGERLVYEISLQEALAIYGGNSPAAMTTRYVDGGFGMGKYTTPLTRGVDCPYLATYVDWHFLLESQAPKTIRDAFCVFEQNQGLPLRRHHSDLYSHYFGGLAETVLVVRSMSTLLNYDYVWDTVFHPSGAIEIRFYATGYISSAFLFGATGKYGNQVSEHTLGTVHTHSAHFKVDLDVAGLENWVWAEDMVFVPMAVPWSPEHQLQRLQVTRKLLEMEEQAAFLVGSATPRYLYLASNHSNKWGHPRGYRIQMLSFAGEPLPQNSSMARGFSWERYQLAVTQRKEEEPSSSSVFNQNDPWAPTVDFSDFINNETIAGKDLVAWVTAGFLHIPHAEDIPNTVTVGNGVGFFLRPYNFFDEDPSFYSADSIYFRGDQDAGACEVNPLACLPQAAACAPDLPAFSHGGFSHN
Description: Inhibition of human VAP-1 expressed in CHO cells preincubated for 20 mins followed by [14C]-benzylamine addition measured after 1 hr by scintillation spectrometric analysis. Format: cell-based.

Another series addresses CYP3A4 (Homo sapiens, UniProt P08684). As to the kind of experiment: Inhibition of CYP3A4 in human liver microsomes using midazolam as substrate assessed as residual activity at 5 uM after 20 mins by HPLC analysis. Format: ADME. The note with it: probe midazolam, read-out: Activity. For orientation: Microsomes from liver hold many membrane-bound enzymes, among them those of drug oxidation.

A short description of series [3]: Stability in human plasma assessed as parent compound remaining at 2 uM after 6 hrs by LC-MS/MS analysis relative to initial concentration. The note with it: read-out: Stability. Format: ADME, cell-free.
In the next series the target is CYP2C19 (Homo sapiens, UniProt P33261). As to the kind of experiment: Inhibition of CYP2C19 in human liver microsomes using S-mephenytoin as substrate assessed as residual activity at 5 uM after 20 mins by HPLC analysis. Format: ADME. The note with it: probe S-mephenytoin, read-out: Activity.
Sequence of CYP2C19 (P33261 whole entry): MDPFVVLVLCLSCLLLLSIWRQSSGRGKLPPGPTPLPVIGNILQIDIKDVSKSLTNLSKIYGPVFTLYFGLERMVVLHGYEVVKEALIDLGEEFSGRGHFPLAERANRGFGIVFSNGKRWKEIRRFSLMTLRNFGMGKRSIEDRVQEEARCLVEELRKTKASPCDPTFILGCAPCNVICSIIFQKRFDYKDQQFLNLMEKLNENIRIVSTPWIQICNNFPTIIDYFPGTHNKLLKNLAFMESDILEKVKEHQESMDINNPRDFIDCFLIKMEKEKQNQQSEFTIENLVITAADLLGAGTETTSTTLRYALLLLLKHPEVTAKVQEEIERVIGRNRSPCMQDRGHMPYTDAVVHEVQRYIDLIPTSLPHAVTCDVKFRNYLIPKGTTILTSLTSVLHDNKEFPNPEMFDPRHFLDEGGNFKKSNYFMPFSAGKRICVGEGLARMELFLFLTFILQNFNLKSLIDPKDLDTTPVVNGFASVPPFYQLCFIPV
The nature of series [4]: Stability in Wistar rat plasma assessed as parent compound remaining at 2 uM after 6 hrs by LC-MS/MS analysis relative to initial concentration. Format: ADME, cell-free. Conditions: read-out: Stability.
Series [5] in a line: Stability in cynomolgus monkey plasma assessed as parent compound remaining at 2 uM after 6 hrs by LC-MS/MS analysis relative to initial concentration. Format: ADME, cell-free, Macaca fascicularis. Conditions: read-out: Stability.
The nature of series [6]: Stability in Beagle dog plasma assessed as parent compound remaining at 2 uM after 6 hrs by LC-MS/MS analysis relative to initial concentration. Format: ADME, cell-free, Canis lupus familiaris. The note with it: read-out: Stability.
A further series concerns the target T2, CYP2C8 (Homo sapiens, UniProt P10632).
T2 sequence (P10632 whole entry): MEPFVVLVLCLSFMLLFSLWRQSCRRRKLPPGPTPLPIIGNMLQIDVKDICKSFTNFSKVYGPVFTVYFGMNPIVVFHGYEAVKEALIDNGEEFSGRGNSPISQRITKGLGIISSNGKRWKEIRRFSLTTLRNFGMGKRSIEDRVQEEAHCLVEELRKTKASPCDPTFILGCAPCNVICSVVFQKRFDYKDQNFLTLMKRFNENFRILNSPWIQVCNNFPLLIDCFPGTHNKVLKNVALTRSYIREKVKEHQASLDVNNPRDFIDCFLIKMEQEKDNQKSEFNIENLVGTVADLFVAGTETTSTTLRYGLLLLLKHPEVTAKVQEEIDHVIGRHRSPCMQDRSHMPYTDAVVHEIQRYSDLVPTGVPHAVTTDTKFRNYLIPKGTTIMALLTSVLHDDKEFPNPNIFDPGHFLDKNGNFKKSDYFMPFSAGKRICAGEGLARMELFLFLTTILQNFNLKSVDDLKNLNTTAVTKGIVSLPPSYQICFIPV
As to the kind of experiment: Inhibition of CYP2C8 in human liver microsomes using amodiaquine as substrate assessed as residual activity at 5 uM after 20 mins by HPLC analysis. Format: ADME. The note with it: probe amodiaquine, read-out: Activity.

Another series has as its target T3, CYP1A2 (Homo sapiens, UniProt P05177).
T3 sequence (P05177 whole entry): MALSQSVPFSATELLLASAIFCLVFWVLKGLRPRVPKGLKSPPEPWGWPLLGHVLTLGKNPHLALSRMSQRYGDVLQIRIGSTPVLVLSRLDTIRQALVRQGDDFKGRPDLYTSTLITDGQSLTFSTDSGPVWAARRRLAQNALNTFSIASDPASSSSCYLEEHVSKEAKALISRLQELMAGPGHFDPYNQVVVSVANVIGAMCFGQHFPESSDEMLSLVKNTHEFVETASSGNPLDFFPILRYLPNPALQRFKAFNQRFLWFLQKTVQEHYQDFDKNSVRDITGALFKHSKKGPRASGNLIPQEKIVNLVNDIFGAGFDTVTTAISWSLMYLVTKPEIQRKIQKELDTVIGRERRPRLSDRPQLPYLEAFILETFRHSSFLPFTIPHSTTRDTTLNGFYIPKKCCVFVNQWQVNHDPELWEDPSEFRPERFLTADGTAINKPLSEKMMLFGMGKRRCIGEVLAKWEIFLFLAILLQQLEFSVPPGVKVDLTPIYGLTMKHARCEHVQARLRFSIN
As to the kind of experiment: Inhibition of CYP1A2 in human liver microsomes using phenacetin as substrate assessed as residual activity at 5 uM after 20 mins by HPLC analysis. Format: ADME. Conditions: probe phenacetin, read-out: Activity.

A further series deals with CYP2D6 (Homo sapiens, UniProt P10635). Description: Inhibition of CYP2D6 in human liver microsomes using dextromethorphan as substrate assessed as residual activity at 5 uM after 20 mins by HPLC analysis. Format: ADME. The note with it: probe dextromethorphan, read-out: Activity.
Sequence of CYP2D6 (P10635 whole entry): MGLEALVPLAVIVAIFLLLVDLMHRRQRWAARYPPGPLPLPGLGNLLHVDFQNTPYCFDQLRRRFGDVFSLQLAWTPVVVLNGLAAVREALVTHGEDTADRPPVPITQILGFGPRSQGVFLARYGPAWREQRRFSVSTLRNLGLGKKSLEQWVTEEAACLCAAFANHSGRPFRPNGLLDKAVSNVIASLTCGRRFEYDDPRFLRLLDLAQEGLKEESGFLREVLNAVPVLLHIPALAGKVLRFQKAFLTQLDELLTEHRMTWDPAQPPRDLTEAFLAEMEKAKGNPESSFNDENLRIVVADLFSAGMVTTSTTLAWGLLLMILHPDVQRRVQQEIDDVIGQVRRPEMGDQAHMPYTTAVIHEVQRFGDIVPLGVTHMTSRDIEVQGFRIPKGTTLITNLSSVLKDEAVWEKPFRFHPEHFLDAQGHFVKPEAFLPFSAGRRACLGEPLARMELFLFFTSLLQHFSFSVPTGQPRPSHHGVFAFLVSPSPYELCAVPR
Another series addresses CYP2C9 (Homo sapiens, UniProt P11712). As to the kind of experiment: Inhibition of CYP2C9 in human liver microsomes using diclofenac as substrate assessed as residual activity at 5 uM after 20 mins by HPLC analysis. Format: ADME. The note with it: probe diclofenac, read-out: Activity.

Bounds are passed on as bounds.

Sequence of CYP3A4 (P08684 whole entry): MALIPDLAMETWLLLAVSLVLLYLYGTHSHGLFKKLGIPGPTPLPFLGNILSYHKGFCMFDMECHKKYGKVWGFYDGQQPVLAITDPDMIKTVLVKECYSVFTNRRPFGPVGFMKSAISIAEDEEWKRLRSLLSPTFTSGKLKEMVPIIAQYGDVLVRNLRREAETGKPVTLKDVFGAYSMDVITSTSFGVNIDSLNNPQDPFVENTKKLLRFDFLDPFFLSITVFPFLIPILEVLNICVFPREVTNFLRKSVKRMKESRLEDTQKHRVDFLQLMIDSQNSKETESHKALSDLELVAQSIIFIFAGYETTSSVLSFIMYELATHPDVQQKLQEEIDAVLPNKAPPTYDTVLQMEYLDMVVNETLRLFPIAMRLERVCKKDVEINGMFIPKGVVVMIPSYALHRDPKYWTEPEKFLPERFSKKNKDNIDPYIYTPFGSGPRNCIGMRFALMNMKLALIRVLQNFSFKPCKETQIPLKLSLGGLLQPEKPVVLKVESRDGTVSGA
Sequence of CYP2C9 (P11712 whole entry): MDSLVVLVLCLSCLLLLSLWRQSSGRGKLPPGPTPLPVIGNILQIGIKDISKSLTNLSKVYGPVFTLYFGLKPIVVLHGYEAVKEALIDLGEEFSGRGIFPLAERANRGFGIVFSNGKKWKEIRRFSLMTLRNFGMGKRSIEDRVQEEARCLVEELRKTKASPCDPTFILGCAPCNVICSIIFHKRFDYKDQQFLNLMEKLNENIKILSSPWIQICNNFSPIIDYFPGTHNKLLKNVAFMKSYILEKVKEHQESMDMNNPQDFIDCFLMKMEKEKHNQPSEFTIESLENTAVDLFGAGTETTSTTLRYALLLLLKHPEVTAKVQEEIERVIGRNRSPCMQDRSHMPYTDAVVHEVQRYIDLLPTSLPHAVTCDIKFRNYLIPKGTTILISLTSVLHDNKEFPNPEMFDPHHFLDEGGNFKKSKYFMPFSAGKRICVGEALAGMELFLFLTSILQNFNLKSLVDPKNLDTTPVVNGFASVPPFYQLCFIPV

Take `N=C(N)NC(=O)OCc1cccc(N2CCN(C3CCOCC3)CC2)c1.O=C(O)C(O)C(O)C(=O)O`: the solubility (in general, the dissolved amount per volume that the medium holds) at 20 h, 130 µM in series [1] is at least 100 µM. In addition, half-maximal inhibition in [2] (IC50) was put at 110 nM.

Turning to `Cl.Cl.Cl.N=C(N)NC(=O)OCc1cccc(N2CCC(N3CCOCC3)CC2)c1`, the solubility at 20 h, 130 µM in series [1] was at least 100 µM. Moreover, the IC50 (in general, the midpoint of a concentration-inhibition curve) in series [2] is 160 nM.

In series [1], `Cc1c(COC(=O)NC(=N)N)cccc1-c1cnc(N2CCOCC2)nc1.O=C(O)C(O)C(O)C(=O)O` displayed a solubility at 20 h, 130 µM of 34 µM. Also, in [2], the IC50 amounted to 410 nM.

In the case of `N=C(N)NC(=O)OCc1cccc(-c2cnc(N3CCOCC3)nc2)c1.O=C(O)C(O)C(O)C(=O)O`, the activity at 20 min, 5 µM on CYP3A4 came to 109%; on CYP2C19 it was 102%; at CYP2C8 it was 83%; on CYP1A2, 96%; on CYP2D6, 93%. The solubility at 20 h, 130 µM in [1] was found to be 8.3 µM. Also, the remaining at 6 h, 2 µM in [3] was determined as 101%; in [4], 105%; in [5] it was 103%; in series [6], 98.3%. For the same compound, the IC50 in series [2] amounted to 47 nM.

On to `N=C(N)Nc1cccc(CCc2cnc(N3CCOCC3)nc2)c1`, for which the IC50 in series [2] is over 10000 nM.

As to `N=C(N)NC(=O)OCc1cccc(N2CCN(c3cccnc3)CC2)c1F.O=C(O)C(O)C(O)C(=O)O`, the activity at 20 min, 5 µM at CYP3A4 stood at 61%; at CYP2C19 it was 96%; at CYP2C8, 99%; on CYP1A2, 94%; at CYP2D6 it was 96%. The compound also returned a solubility at 20 h, 130 µM in series [1] of 31 µM.

As for `N=C(N)NC(=O)Cc1cccc(CCc2cnc(N3CCOCC3)nc2)c1`, in series [2], the midpoint of inhibition, the IC50, lay at 54 nM.

`N=C(N)NC(=O)OCc1ccc(F)c(-c2cnc(N3CCOCC3)nc2)c1F.N=C(N)NC(=O)OCc1ccc(F)c(-c2cnc(N3CCOCC3)nc2)c1F.O=C(O)C(O)C(O)C(=O)O` came in with a solubility at 20 h, 130 µM in series [1] of 17 µM. Also, half-maximal inhibition in series [2] (IC50) required 77 nM.

On to `Cl.N=C(N)NC(=O)OCc1cccc(-c2cnc(N3CCOCC3)nc2)c1F`, for which the concentration in solution in [1] (solubility at 20 h, 130 µM) was 7.5 µM. This compound also registered an IC50 in series [2] of 9.2 nM.

In the case of `Cc1ncccc1OC1CN(c2cccc(COC(=O)NC(=N)N)c2F)C1.O=C(O)C(O)C(O)C(=O)O`, the activity at 20 min, 5 µM at CYP3A4 amounted to 96%; on CYP2C19 it was 91%; at CYP2C8, 46%; at CYP1A2 it was 89%; on CYP2D6, 77%. In series [1], this compound gave a solubility at 20 h, 130 µM of at least 100 µM. For the same compound, the 50% inhibitory concentration (IC50) in series [2] was found to be 40 nM.

Compound `CN(Cc1cccc(-c2cnc(N3CCOCC3)nc2)c1)C(=O)CN.O=C(O)C(O)C(O)C(=O)O` had a solubility at 20 h, 130 µM in [1] of at least 100 µM. In addition, the IC50 in series [2] was found to be 31 nM.

In turn, `Cl.Cl.Cl.N=C(N)NC(=O)OCc1cccc(N2CCN(c3ccccn3)CC2)c1` came in with a solubility at 20 h, 130 µM in series [1] of at least 100 µM. This compound also showed an IC50 in series [2] of 140 nM.

`Cc1nc(N2CCOCC2)ncc1-c1cccc(COC(=O)NC(=N)N)c1F.O=C(O)C(O)C(O)C(=O)O` registered a solubility at 20 h, 130 µM in series [1] of 90 µM. The compound also gave an IC50 in series [2] of 400 nM.

With `N=C(N)NCCc1cccc(CCc2cnc(N3CCOCC3)nc2)c1`, the concentration for half-maximal inhibition (IC50) in series [2] is over 10000 nM.

Regarding `Cl.Cl.Cl.N=C(N)NC(=O)OCc1cccc(N2CCN(c3ccncc3)CC2)c1`, the activity at 20 min, 5 µM at CYP3A4 was found to be 80%; on CYP2C19, 91%; on CYP2C8, 25%; on CYP1A2, 86%; at CYP2C9 it was 80%; at CYP2D6 it was 13%. In series [1], this compound had a solubility at 20 h, 130 µM of at least 100 µM. The compound further registered a concentration for half-maximal inhibition (IC50) in series [2] of 13 nM.

As to `N=C(N)Nc1ccc(CCc2cnc(N3CCOCC3)nc2)cc1`, in series [2], the half-maximal inhibitory concentration (IC50) was 5100 nM.

Take `CN(Cc1cccc(-c2cnc(N3CCOCC3)nc2)c1)C(=O)NC(=N)N`: the IC50 in series [2] was determined as 530 nM.

In the case of `N=C(N)NC(=O)OCc1cccc(N2CCC(Oc3cccnc3)CC2)c1F.O=C(O)C(O)C(O)C(=O)O`, the activity at 20 min, 5 µM worked out at 32% on CYP3A4; 96% at CYP2C19; 61% on CYP2C8; 93% on CYP1A2; 11% at CYP2D6. In series [1], the solubility at 20 h, 130 µM is at least 100 µM. The midpoint of inhibition in series [2], the IC50, lay at 45 nM.

In turn, `Cl.Cl.N=C(N)NC(=O)OCc1ccc(F)c(-c2cnc(N3CCOCC3)nc2)c1` displayed a solubility at 20 h, 130 µM in series [1] of 68 µM. In [2], this compound registered an IC50 of 99 nM.

Compound `Cl.Cl.N=C(N)NC(=O)OCc1cccc(-c2cnc(N3CCOCC3)nc2)c1Cl` had a solubility at 20 h, 130 µM in series [1] of 8.2 µM. The same compound returned an IC50 in series [2] of 600 nM.

Consider `Cl.Cl.Cl.N=C(N)NC(=O)OCc1cccc(N2CCN(c3cccnc3)CC2)c1`, for which the activity at 20 min, 5 µM came to 64% at CYP3A4; 99% at CYP2C19; 92% on CYP2C8; 55% at CYP1A2; 101% at CYP2C9; 68% on CYP2D6. Further, the solubility at 20 h, 130 µM in [1] was at least 100 µM. Moreover, in [2], it took 31 nM to reach half-maximal inhibition (IC50).

`N=C(N)NC(=O)OCc1cccc(N2CC(Oc3cccnc3)C2)c1F.N=C(N)NC(=O)OCc1cccc(N2CC(Oc3cccnc3)C2)c1F.O=C(O)C(O)C(O)C(=O)O`: the activity at 20 min, 5 µM on CYP3A4 worked out at 56%; on CYP2C19 it was 66%; at CYP2C8 it was 78%; on CYP1A2, 84%; at CYP2D6, 16%. Moreover, in [1], the solubility at 20 h, 130 µM is at least 100 µM. The compound also gave an IC50 in series [2] of 24 nM.

Turning to `N=C(N)NC(=O)Cc1cccc(-c2cnc(N3CCOCC3)nc2)c1`, in series [2], the half-maximal inhibitory concentration (IC50) was 56 nM.
